In ChEMBL document CHEMBL4765365, “Design, synthesis and antitumour evaluation of pyrrolo[1,2-f]-phenanthridine and dibenzo[f,h]pyrrolo[1,2-b]isoquinoline derivatives” (Eur J Med Chem, 2020):
Calls of active or inactive are those of the source. The rule behind the calls is not given here.

What was measured:
CCRF-CEM = test: Cytotoxicity against human CCRF-CEM cells assessed as reduction in cell viability incubated for 72 hrs by XTT assay; type: functional, cell-based
HCT-116 [1] = test: Induction of cell cycle arrest in human HCT-116 cells assessed as S phase at 0.375 uM measured at 0 hrs by PI staining based flow cytometry analysis (reference value: 12.4 +/- 6.2 %); type: functional
HCT-116 [2] = test: Induction of cell cycle arrest in human HCT-116 cells assessed as G0 phase at 0.375 uM incubated for 12 hrs by PI staining based flow cytometry analysis (reference value: 2.2 +/- 1.7 %); type: functional
HCT-116 [3] = test: Induction of cell cycle arrest in human HCT-116 cells assessed as G1 phase at 0.375 uM incubated for 12 hrs by PI staining based flow cytometry analysis (reference value: 53.6 +/- 4.5 %); type: functional
HCT-116 [4] = test: Induction of cell cycle arrest in human HCT-116 cells assessed as S phase at 0.375 uM incubated for 24 hrs by PI staining based flow cytometry analysis (reference value: 21.2 +/- 5.4 %); type: functional
HCT-116 [5] = test: Induction of cell cycle arrest in human HCT-116 cells assessed as G0 phase at 0.375 uM incubated for 36 hrs by PI staining based flow cytometry analysis (reference value: 2.5 +/- 0.8 %); type: functional
HCT-116 [6] = test: Induction of cell cycle arrest in human HCT-116 cells assessed as S phase at 0.75 uM incubated for 36 hrs by PI staining based flow cytometry analysis (reference value: 7.9 +/- 3.7 %); type: functional
HCT-116 [7] = test: Induction of cell cycle arrest in human HCT-116 cells assessed as G0 phase at 1.5 uM measured at 0 hrs by PI staining based flow cytometry analysis (reference value: 0.7 +/- 0.2 %); type: functional
HCT-116 [8] = test: Induction of cell cycle arrest in human HCT-116 cells assessed as G2/M phase at 1.5 uM measured at 0 hrs by PI staining based flow cytometry analysis (reference value: 28.9 +/- 1.4 %); type: functional
HCT-116 [9] = test: Induction of cell cycle arrest in human HCT-116 cells assessed as G0 phase at 1.5 uM incubated for 12 hrs by PI staining based flow cytometry analysis (reference value: 2.2 +/- 1.7 %); type: functional
HCT-116 [10] = test: Induction of cell cycle arrest in human HCT-116 cells assessed as G2/M phase at 1.5 uM incubated for 12 hrs by PI staining based flow cytometry analysis (reference value: 21.7 +/- 1.9 %); type: functional
NCI-H460 [11] = test: Induction of cell cycle arrest in human NCI-H460 cells assessed as S phase at 0.75 uM measured at 0 hrs by PI staining based flow cytometry analysis (reference value: 12.2 +/- 2.8 %); type: functional
NCI-H460 [12] = test: Induction of cell cycle arrest in human NCI-H460 cells assessed as G2/M phase at 0.75 uM measured at 0 hrs by PI staining based flow cytometry analysis (reference value: 25.2 +/- 4 %); type: functional
NCI-H460 [13] = test: Induction of cell cycle arrest in human NCI-H460 cells assessed as G1 phase at 0.75 uM incubated for 12 hrs by PI staining based flow cytometry analysis (reference value: 66 +/- 10 %); type: functional
NCI-H460 [14] = test: Induction of cell cycle arrest in human NCI-H460 cells assessed as G2/M phase at 0.75 uM incubated for 12 hrs by PI staining based flow cytometry analysis (reference value: 22.9 +/- 6.8 %); type: functional
NCI-H460 [15] = test: Induction of cell cycle arrest in human NCI-H460 cells assessed as G1 phase at 0.75 uM incubated for 24 hrs by PI staining based flow cytometry analysis (reference value: 56.8 +/- 7.6 %); type: functional
NCI-H460 [16] = test: Induction of cell cycle arrest in human NCI-H460 cells assessed as G0 phase at 1.5 uM measured at 0 hrs by PI staining based flow cytometry analysis (reference value: 1.3 +/- 0.9 %); type: functional
NCI-H460 [17] = test: Induction of cell cycle arrest in human NCI-H460 cells assessed as G0 phase at 1.5 uM incubated for 12 hrs by PI staining based flow cytometry analysis (reference value: 2.9 +/- 2.4 %); type: functional
NCI-H460 [18] = test: Induction of cell cycle arrest in human NCI-H460 cells assessed as S phase at 1.5 uM incubated for 12 hrs by PI staining based flow cytometry analysis (reference value: 11.2 +/- 4.3 %); type: functional
NCI-H460 [19] = test: Induction of cell cycle arrest in human NCI-H460 cells assessed as G1 phase at 1.5 uM incubated for 36 hrs by PI staining based flow cytometry analysis (reference value: 57.9 +/- 3.6 %); type: functional
NCI-H460 [20] = test: Induction of cell cycle arrest in human NCI-H460 cells assessed as G2/M phase at 1.5 uM incubated for 36 hrs by PI staining based flow cytometry analysis (reference value: 25 +/- 1.2 %); type: functional
NCI-H460 [21] = test: Induction of cell cycle arrest in human NCI-H460 cells assessed as G1 phase at 3 uM measured at 0 hrs by PI staining based flow cytometry analysis (reference value: 53.4 +/- 4.8 %); type: functional
NCI-H460 [22] = test: Induction of cell cycle arrest in human NCI-H460 cells assessed as G0 phase at 3 uM incubated for 12 hrs by PI staining based flow cytometry analysis (reference value: 2.9 +/- 2.4 %); type: functional
NCI-H460 [23] = test: Induction of cell cycle arrest in human NCI-H460 cells assessed as G2/M phase at 3 uM incubated for 12 hrs by PI staining based flow cytometry analysis (reference value: 22.9 +/- 6.8 %); type: functional
NCI-H460 [24] = test: Induction of cell cycle arrest in human NCI-H460 cells assessed as G2/M phase at 3 uM incubated for 36 hrs by PI staining based flow cytometry analysis (reference value: 25 +/- 1.2 %); type: functional
NCI-H460 [25] = test: Induction of apoptosis in human NCI-H460 cells assessed as late apoptotic cells at 1.5 uM incubated for 48 hrs by annexin V-FITC and PI staining based flow cytometry analysis (reference value: 7.3 %); type: functional
NCI-H460 [26] = test: Induction of apoptosis in human NCI-H460 cells assessed as viable cells at 3 uM incubated for 48 hrs by annexin V-FITC and PI staining based flow cytometry analysis (reference value: 90.1 %); type: functional; conditions: read-out: Activity
NCI-H460 [27] = test: Induction of apoptosis in human NCI-H460 cells assessed as early apoptotic cells at 6 uM incubated for 48 hrs by annexin V-FITC and PI staining based flow cytometry analysis (reference value: 2 %); type: functional
NCI-H460 [28] = test: Induction of apoptosis in human NCI-H460 cells assessed as necrotic cells at 6 uM incubated for 48 hrs by annexin V-FITC and PI staining based flow cytometry analysis (reference value: 0.7 %); type: functional
HCT-116 [29] = test: Antitumor activity against human HCT-116 cells xenografted in nude mouse assessed as reduction in tumor size at 30 mg/kg, iv administered for 5 days and repeated cycle for 2 days interval and measured on day 24; type: functional; conditions: HCT-116, iv, 576 h, time 24 day, read-out: TGI
dsDNA = test: Induction of pBR322 DNA interstand crosslink at 1 to 20 uM incubated for 2 hrs by agarose gel electrophoresis assay; conditions: dose 1-20 µM

## OCc1cn2c3ccccc3c3ccccc3c2c1CO
CCRF-CEM
  IC50: 0.37 µM
HCT-116 [1]
  Activity: 12.4%
HCT-116 [2]
  Activity: 1.8%
HCT-116 [3]
  Activity: 51.6%
HCT-116 [4]
  Activity: 17.2%
HCT-116 [5]
  Activity: 2.8%
HCT-116 [6]
  Activity: 5.1%
HCT-116 [7]
  Activity: 2.2%
HCT-116 [8]
  Activity: 28.5%
HCT-116 [9]
  Activity: 1.9%
HCT-116 [10]
  Activity: 24%
NCI-H460 [11]
  Activity: 12.6%
NCI-H460 [12]
  Activity: 24.2%
NCI-H460 [13]
  Activity: 53%
NCI-H460 [14]
  Activity: 23.7%
NCI-H460 [15]
  Activity: 54%
NCI-H460 [16]
  Activity: 1.4%
NCI-H460 [17]
  Activity: 2.6%
NCI-H460 [18]
  Activity: 16.3%
NCI-H460 [19]
  Activity: 73.1%
NCI-H460 [20]
  Activity: 17.5%
NCI-H460 [21]
  Activity: 52.1%
NCI-H460 [22]
  Activity: 2.5%
NCI-H460 [23]
  Activity: 22.8%
NCI-H460 [24]
  Activity: 25.6%
NCI-H460 [25]
  Activity: 13.7%
NCI-H460 [26]
  viability at 3 µM: 36.2%
NCI-H460 [27]
  Activity: 29.2%
NCI-H460 [28]
  Activity: 1.6%
HCT-116 [29]
  inhibition in vivo at 30 mg/kg: 72%
dsDNA
  Activity: Active
